The subject of series [1] is 4T1 cancer cell line-implanted mice. The series can be described thus: 4T1 I: tumor size in mouse breast cancer cell-implanted mice. Format: in vivo, Balb/c mice. To be noted: 10 days; OTS-412 1×10^7 pfu intratumorally once; hydroxyurea 30 mg/kg intraperitoneally once a day; n=4.
Series [2] shares this test system. The series can be described thus: 4T1 III: tumor size and survival with high-dose hydroxyurea. Format: in vivo, Balb/c mice. To be noted: 17 days; OTS-412 1×10^7 pfu intratumorally once; high-dose hydroxyurea 90 mg/kg intraperitoneally once a day.
Series [3] relates to NCI-H460 lung cancer cells-implanted mice. Briefly: Tumor size in human lung cancer cell (NCI-H460)-implanted mice. Format: in vivo, Balb/c nu/nu mice. The following applies: day 15; OTS-412 1×10^5 pfu twice (5 days apart); hydroxyurea 20 mg/kg once daily.
Series [4] deals with HCT-116 cancer cell line-implanted mice. Briefly: Tumor size in human colorectal cancer cell (HCT-116)-implanted mice. Format: in vivo, Balb/c nu/nu mice. To be noted: day 28; hydroxyurea only, once daily; n=5.
For series [5] the following is noted: day 21; OTS-412 1×10^7 pfu twice or hydroxyurea 30 mg/kg, each alone; n=10.

With hydroxyurea, the tumor size increase in series [1] was around 5 times; in series [2], around 3.5 times; in series [3], 9 times; in series [4], 11 times. The body weight loss result in series [5] is “around 10%”.

For the origin of these results see patent US20200405794A1, “PHARMACEUTICAL COMPOSITION FOR PREVENTING OR TREATING CANCER […] AND H[…] EFFECTIVE COMPONENTS” (priority 2018, published 2020).
